Test results as given in US9428431B2, “Compositions comprising CB receptor agonists, uses thereof and methods for their preparation” (Yissum Research Development Company of the Hebrew …, priority 2008, dated 2016).
Where two headings read alike, the source gives them in different places.

Experiments:
[1] = tested on: Osteoblastic MC3T3 E1 cells; assay: Stimulation of MC3T3 E1 osteoblastic cell number; format: cell-based; details: for ligand concentration that doubled cell number: MC3T3 E1 cells, last 46 hours in culture, DMSO solution
Protocol: Osteoblastic MC3T3 E1 cells were cultured as reported in Miguel et al, 2005. […] Control cultures were treated only with the DMSO solvent (Ofek et al, 2006).

[2] = tested on: mice; details: cited from earlier work
[3] = tested on: OVX mouse model; assay: Rescue of ovariectomy (OVX)-induced trabecular bone loss, μCT of L3 vertebrae; format: in vivo
Text: Data are mean±S.E. obtained in 6 mice per condition. (*) p<0.05.
Using this experimental system for testing bone anabolic activity, OVXed mice are left untreated to allow for bone loss to occur, followed by a treatment period intended for reversal of the bone loss (Alexander et al, 2001).

[4] = tested on: osteoblastogenesis / osteoclastogenesis; details: cited from earlier work
[5] = biological target: T1, CB1 receptor (Rattus norvegicus, UniProt P20272); details: cited from earlier work
T1 construct: synaptosomal membranes were prepared from the brains of Sabra rats by homogenization and gradient centrifugation; from tissue; host or cells: brain of Sabra rats, synaptosomal membranes
T1 sequence (P20272 whole entry): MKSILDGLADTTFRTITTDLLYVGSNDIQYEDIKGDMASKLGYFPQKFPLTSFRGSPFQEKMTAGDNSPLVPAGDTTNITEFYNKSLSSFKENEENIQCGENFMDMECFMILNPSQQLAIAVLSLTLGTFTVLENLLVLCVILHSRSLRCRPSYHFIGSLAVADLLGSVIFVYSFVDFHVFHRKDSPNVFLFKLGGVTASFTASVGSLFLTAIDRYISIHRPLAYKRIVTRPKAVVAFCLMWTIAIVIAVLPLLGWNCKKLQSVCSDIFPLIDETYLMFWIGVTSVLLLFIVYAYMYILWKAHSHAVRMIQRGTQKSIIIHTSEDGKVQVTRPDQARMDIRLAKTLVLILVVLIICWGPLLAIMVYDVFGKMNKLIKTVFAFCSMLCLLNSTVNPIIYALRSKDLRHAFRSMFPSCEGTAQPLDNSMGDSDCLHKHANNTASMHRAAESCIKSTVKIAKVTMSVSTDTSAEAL

[6] = biological target: T2, CB2 receptor (Homo sapiens, UniProt P34972); details: Hanus et al.; cited from earlier work
T2 construct: expressed in transfected cells; host or cells: COS-7 cells
T2 sequence (P34972 whole entry): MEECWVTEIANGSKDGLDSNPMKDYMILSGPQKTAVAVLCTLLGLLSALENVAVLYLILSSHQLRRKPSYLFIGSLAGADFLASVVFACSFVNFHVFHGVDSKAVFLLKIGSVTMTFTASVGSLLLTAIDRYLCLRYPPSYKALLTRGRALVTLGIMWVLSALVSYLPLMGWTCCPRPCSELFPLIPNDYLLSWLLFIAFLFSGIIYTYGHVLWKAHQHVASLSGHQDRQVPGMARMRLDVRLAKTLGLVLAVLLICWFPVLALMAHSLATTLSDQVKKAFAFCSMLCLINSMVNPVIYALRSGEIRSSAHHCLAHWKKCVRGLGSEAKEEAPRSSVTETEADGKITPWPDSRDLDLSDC

[7] = biological target: T1, CB1 receptor; assay: CB1 receptor binding, [3H]HU-243 displacement, synaptosomal membranes; parameters: species or system Sabra rats
Protocol: For CB1 receptor binding, synaptosomal membranes were prepared from the brains of Sabra rats by homogenization and gradient centrifugation (Devane et al, 1992). For CB2 receptor binding assay, COS-7 cells were transfected with plasmids containing CB2 cDNA, and crude membranes were prepared (Munro et al, 1993).
Bound and free radioligands were separated by centrifugation. The data were normalized to 100% of specific binding, which was determined with 50 nM unlabeled HU-243.

CCCCCCC(C)(C)c1cc(OC)c([C@@H]2C=C(CO)[C@@H]3C[C@H]2C3(C)C)c(OC)c1 [HU-308]
ligand concentration that doubled cell number [1]: 10^−8 M
OVX-induced bone loss ([2]; another mouse model, Bab et al, 2008): rescues
bone formation ([2]; mice, Ofek et al, 2006): stimulates bone formation
bone resorption ([2]; mice, Ofek et al, 2006): inhibits bone resorption
ovariectomy (OVX)-induced bone loss ([2]; mice, Ofek et al, 2006): attenuating
reversal of OVX-induced trabecular bone loss ([3]; 20 mg/Kg/day intraperitoneal for 6 weeks, starting 6 weeks after OVX, L3 vertebrae μCT): 50%
in vitro osteoblastogenesis [4]: stimulates
in vitro osteoclastogenesis [4]: inhibits
binding to CB1 receptor ([5]; Hanus et al.): did not bind to CB1 receptor
Ki ([5]; read-out: Ki CB1, HU-308, from Hanus et al, 1999): > 10 µM
binding to CB2 receptor [6]: potent binding to CB2 receptor

CCCCCCC(C)(C)c1cc(OC)c([C@@H]2C=C(CO)C3CC2C3(C)C)c(OC)c1 (single isomer, unassigned; (-)) [HU-433, (−)-2-(3-myrtenyl)-5-dimethylheptyl resorcinol]
in vitro skeletal activity compared to HU-308 ([1]; MC3T3 E1 cell number assay): 1000 fold
ligand concentration that doubled cell number [1]: 10^−11 M
rescue of OVX-induced trabecular bone loss ([3]; 0.2 mg/Kg/day intraperitoneal for 6 weeks, starting 6 weeks after OVX, L3 vertebrae μCT): significantly rescued almost the entire OVX-induced trabecular bone loss
effect compared with reversal of bone volumetric density by parathyroid hormone (1-34) ([3]; comparison with Alexander et al, 2001): substantially greater
Ki [7]: > 20 µM
binding to CB1 receptor ([7]; present example): did not bind to CB1 receptor

CCCCCCC(C)(C)c1cc(O)c2c(c1)OC(C)(C)[C@@H]1CC[C@@H](CO)C[C@@H]21 [[^3H]HU-243]
Kd ([5]; radioligand probe, read-out: dissociation constant for the CB1 receptor): 0.045 ± 0.007 nM
